We go through three compounds from article PMC9343605, “Structural insights into ligand recognition and selectivity of somatostatin receptors” (Cell Research, 2022).

For data set [1], the target named is SSTR4 (Homo sapiens, UniProt P31391, S208A). Put plainly: Whole cell binding assay, SSTR4, competition with 125I-Tyr11-SST14, CHO-K1. To be noted: SSTR4 mutant S208^5.35A, mean ± SEM.
Experimental: (§1) For SSTR2 and SSTR4, CHO-K1 cells were cultured in F12 medium with 10% FBS and seeded at a density of 30,000 cells/well in Isoplate-96 plates (PerkinElmer). Twenty-four hours after transfection with the WT or mutant SSTR2/SSTR4, CHO-K1 cells were washed twice and incubated with blocking buffer (F12 supplemented with 25 mM HEPES and 0.1% (w/v) BSA, pH 7.4) for 2 h at 37 °C. […] Following incubation, cells were washed three times with ice-cold PBS and lysed by 50 μL lysis buffer (PBS supplemented with 20 mM Tris-HCl, 1% Triton X-100, pH 7.4). The radioactivity was subsequently counted (counts/min, CPM) in a scintillation counter (MicroBeta[2] Plate Counter, PerkinElmer) using a scintillation cocktail (OptiPhaseSuperMix, PerkinElmer). Data were analyzed by nonlinear regression using GraphPad PRISM 8.
(§2) aMutants represent that all mutations were introduced separately into the WT receptors
and expressed in CHO K1 cells.
(§3) bThe IC50 ratio was shown as IC50(mutant)/IC50(WT), indicating the shift between the WT
(§4) and mutant curves, reflecting the effect of the mutations on ligand binding.
(§5) cData are shown as mean ± S.E.M. form at least three independent experiments
(§6) performed in technical triplicate. One-way ANOVA was performed followed by
(§7) Dunnett’s post-test and compared with WT.
(§8) d The span is defined as the window between the maximal agonists response (Emax) and
(§9) e Sample size; the number of independent experiments performed in technical triplicate.
Data set [2] addresses T1, SSTR4 (Homo sapiens, UniProt P31391, N293A).
T1 construct: expressed in transfected cells; host or cells: HEK293F
The description is as above. To be noted: SSTR4 mutant N293^7.35A, mean ± SEM.
Experimental: as §1, §2
and expressed in CHO K1 cells.
as §3, §4, §5, §6, §7, §8, §9

Data set [3] concerns the target T2, SSTR4 (Homo sapiens, UniProt P31391, L297A).
T2 construct: expressed in transfected cells; host or cells: HEK293F
Kind of data set: cAMP accumulation assay (agonist-induced inhibition of forskolin-stimulated cAMP), SSTR4, HEK293F.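 Also: transiently transfected cells incubated 40 min at room temperature with 4 µM forskolin and graded ligand, cAMP read by LANCE Ultra TR-FRET kit, values normalized to WT receptor per ligand.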 It is filed as cell-based. To be noted: SSTR4 mutant L297^7.39A, mean ± SEM.
Experimental: (§10) HEK293F cells were transiently transfected with WT or mutant SSTR2/SSTR4 using transfection reagent (PEI MAX 2000, Polysciences) and incubated at 37 °C in 5% CO2. Forty-eight hours after transfection, cells were centrifuged and resuspended in stimulation buffer (Hanks’ balanced salt solution (HBSS) supplemented with 5 mM HEPES, 0.5 mM IBMX and 0.1% (w/v) bovine serum albumin (BSA), pH 7.4) to a density of 200,000 cells/mL and added to 384-well white plates (PerkinElmer, 1000 cells/well). cAMP accumulation was measured by a LANCE Ultra cAMP kit (PerkinElmer) according to the manufacturer’s instructions. In brief, transfected cells were incubated for 40 min in stimulation buffer with 2.5 μL forskolin (SSTR2: 2 μM; SSTR4: 4 μM) and gradient concentration of ligand at RT. The reactions were stopped by addition of lysis buffer containing 5 μL Eu-cAMP tracer and 5 μL ULight-anti-cAMP. Plates were then incubated for 60 min at RT and time-resolved FRET signals were measured at 620 nm and 665 nm by an EnVision multilabel plate reader (PerkinElmer). Data were analyzed in GraphPad PRISM 8 and all values were normalized to the WT for each ligand. All outcomes were repeated at least three times.
(§11) aMutants represent that mutations were introduced separately into the WT receptors and
(§12) transiently expressed in HEK 293F cells.
(§13) bThe EC50 ratio was shown as EC50(mutant)/EC50(WT), indicating the shift between the WT
(§14) and mutant curves, reflecting the effect of the mutations on receptor signaling.
(§15) cData are shown as mean ± S.E.M. from at least three independent experiments
as §6
(§16) Dunnett’s post-test and compared with WT. The P value was defined as: *P<0.05;
as §8, §9
(§17) f Receptor expression level of HEK 293F cells was determined independently by flow
(§18) cytometry with anti-FLAG antibody and shown as per cent compared to the WT.

The target of data set [4] is SSTR4 (Homo sapiens, UniProt P31391, N293F). The description is as above. Type of data set: cell-based. The note with it: HEK293F; SSTR4 mutant N293^7.35F; mean ± SEM; read-out: Span.
Sequence of SSTR4 (Homo sapiens, UniProt P31391, N293F) (P31391 whole entry N293F): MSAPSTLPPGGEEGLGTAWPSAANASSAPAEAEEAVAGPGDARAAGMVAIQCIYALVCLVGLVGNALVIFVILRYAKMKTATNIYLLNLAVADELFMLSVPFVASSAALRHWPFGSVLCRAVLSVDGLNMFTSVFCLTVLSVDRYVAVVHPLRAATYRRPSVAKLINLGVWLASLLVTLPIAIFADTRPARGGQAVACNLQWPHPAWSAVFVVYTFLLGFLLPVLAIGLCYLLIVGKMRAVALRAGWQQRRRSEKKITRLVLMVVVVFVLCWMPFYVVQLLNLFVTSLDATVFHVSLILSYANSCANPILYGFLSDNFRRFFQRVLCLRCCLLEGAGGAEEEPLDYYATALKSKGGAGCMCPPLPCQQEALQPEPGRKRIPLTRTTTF
Experimental: as §10, §11, §12, §13, §14, §15, §6, §16, §8, §9, §17, §18
The target in data set [5] is SSTR4 (Homo sapiens, UniProt P31391, S208W). The data set is described as above. It is filed as cell-based. The note with it: SSTR4 mutant S208^5.35W, mean ± SEM.
Sequence of SSTR4 (Homo sapiens, UniProt P31391, S208W) (P31391 whole entry S208W): as the sequence (P31391 whole entry N293F) above, with S208W, F293N counted along it
Experimental: as §10, §11, §12, §13, §14, §15, §6, §16, §8, §9, §17, §18
The target in data set [6] is T3, SSTR4 (Homo sapiens, UniProt P31391, N282A).
T3 construct: expressed in transfected cells; host or cells: HEK293F
T3 sequence (P31391 whole entry N282A): as the sequence (P31391 whole entry N293F) above, with N282A, F293N counted along it
The description is as above. It is filed as cell-based. To be noted: SSTR4 mutant N282^6.58A, mean ± SEM.
Experimental: as §10, §11, §12, §13, §14, §15, §6, §16, §8, §9, §17, §18

The target of data set [7] is SSTR4 (Homo sapiens, UniProt P31391, R110A). Described as above. It is filed as cell-based. To be noted: SSTR4 mutant R110^ECL1A, mean ± SEM.
Sequence of SSTR4 (Homo sapiens, UniProt P31391, R110A) (P31391 whole entry R110A): as the sequence (P31391 whole entry N293F) above, with R110A, F293N counted along it
Experimental: as §10, §11, §12, §13, §14, §15, §6, §16, §8, §9, §17, §18
Data set [8] concerns the target T1, SSTR4. Described as above. Type of data set: cell-based. To be noted: SSTR4 mutant N293^7.35A, mean ± SEM.
Experimental: as §10, §11, §12, §13, §14, §15, §6, §16, §8, §9, §17, §18
The target in data set [9] is T4, SSTR4 (Homo sapiens, UniProt P31391, F211A).
T4 construct: expressed in transfected cells; host or cells: HEK293F
T4 sequence (P31391 whole entry F211A): as the sequence (P31391 whole entry N293F) above, with F211A, F293N counted along it
Described as above. Type of data set: cell-based. The note with it: SSTR4 mutant F211^5.38A, mean ± SEM.
Experimental: as §10, §11, §12, §13, §14, §15, §6, §16, §8, §9, §17, §18

Data set [10] has as its target T5, SSTR4 (Homo sapiens, UniProt P31391, F275A). The description is as above. Further details: expressed in transfected cells; host or cells: HEK293F. It is filed as cell-based. The note with it: SSTR4 mutant F275^6.51A, mean ± SEM.
Experimental: as §10, §11, §12, §13, §14, §15, §6, §16, §8, §9, §17, §18
Data set [11] concerns the target T6, SSTR4 (Homo sapiens, UniProt P31391, Q279A). The description is as above. It is filed as cell-based. Further details: expressed in transfected cells; host or cells: HEK293F. To be noted: SSTR4 mutant Q279^6.55A, mean ± SEM.
Experimental: as §10, §11, §12, §13, §14, §15, §6, §16, §8, §9, §17, §18
Data set [12] concerns the target T7, SSTR4 (Homo sapiens, UniProt P31391, N199A). The data set is described as above. Type of data set: cell-based. Set-up: expressed in transfected cells; host or cells: HEK293F. To be noted: SSTR4 mutant N199^ECL2A, mean ± SEM.
Experimental: as §10, §11, §12, §13, §14, §15, §6, §16, §8, §9, §17, §18
Data set [13] concerns the target T8, SSTR4 (Homo sapiens, UniProt P31391). The description is as above. Type of data set: cell-based. Further details: expressed in transfected cells; host or cells: HEK293F. The note with it: HEK293F, WT SSTR4, mean ± SEM.
Experimental: as §10, §11, §12, §13, §14, §15, §6, §16, §8, §9, §17, §18
The target of data set [14] is T9, SSTR4 (Homo sapiens, UniProt P31391, M130A). The data set is described as above. Type of data set: cell-based. Set-up: expressed in transfected cells; host or cells: HEK293F. The note with it: SSTR4 mutant M130^3.36A, mean ± SEM.
T9 sequence (P31391 whole entry M130A): as the sequence (P31391 whole entry N293F) above, with M130A, F293N counted along it
Experimental: as §10, §11, §12, §13, §14, §15, §6, §16, §8, §9, §17, §18
The target of data set [15] is T10, SSTR4 (Homo sapiens, UniProt P31391, T215A). The description is as above. Type of data set: cell-based. Further details: expressed in transfected cells; host or cells: HEK293F. The note with it: SSTR4 mutant T215^5.42A, mean ± SEM.
T10 sequence (P31391 whole entry T215A): as the sequence (P31391 whole entry N293F) above, with T215A, F293N counted along it
Experimental: as §10, §11, §12, §13, §14, §15, §6, §16, §8, §9, §17, §18
Data set [16] addresses T5, SSTR4. Put plainly: Whole cell binding assay, SSTR4, competition with 125I-Tyr11-SST14, CHO-K1. Set-up: expressed in transfected cells. The note with it: CHO-K1; SSTR4 mutant F275^6.51A; mean ± SEM; read-out: Span.
Experimental: as §1, §2
and expressed in CHO K1 cells.
as §3, §4, §5, §6, §7, §8, §9
Data set [17] has as its target T6, SSTR4. The description is as above. Set-up: expressed in transfected cells. To be noted: SSTR4 mutant Q279^6.55A, mean ± SEM.
Experimental: as §1, §2
and expressed in CHO K1 cells.
as §3, §4, §5, §6, §7, §8, §9
Data set [18] has as its target T7, SSTR4. The description is as above. Further details: expressed in transfected cells. The note with it: CHO-K1; SSTR4 mutant N199^ECL2A; mean ± SEM; read-out: Span.
Experimental: as §1, §2
and expressed in CHO K1 cells.
as §3, §4, §5, §6, §7, §8, §9
The target in data set [19] is T8, SSTR4. The data set is described as above. Set-up: expressed in transfected cells. To be noted: WT SSTR4, mean ± SEM.
Experimental: as §1, §2
and expressed in CHO K1 cells.
as §3, §4, §5, §6, §7, §8, §9
The target in data set [20] is T9, SSTR4. The description is as above. The note with it: CHO-K1; SSTR4 mutant M130^3.36A; mean ± SEM; read-out: Span. Set-up: expressed in transfected cells.
Experimental: as §1, §2
and expressed in CHO K1 cells.
as §3, §4, §5, §6, §7, §8, §9
For data set [21], the target named is SSTR4 (Homo sapiens, UniProt P31391, D126A). Described as above. Set-up: expressed in transfected cells. The note with it: CHO-K1; SSTR4 mutant D126^3.32A; mean ± SEM; read-out: Span.
Sequence of SSTR4 (Homo sapiens, UniProt P31391, D126A) (P31391 whole entry D126A): as the sequence (P31391 whole entry N293F) above, with D126A, F293N counted along it
Experimental: as §1, §2
and expressed in CHO K1 cells.
as §3, §4, §5, §6, §7, §8, §9
The target of data set [22] is T10, SSTR4. Described as above. Set-up: expressed in transfected cells. To be noted: SSTR4 mutant T215^5.42A, mean ± SEM.
Experimental: as §1, §2
and expressed in CHO K1 cells.
as §3, §4, §5, §6, §7, §8, §9
Data set [23] has as its target SSTR4 (Homo sapiens, UniProt P31391, Y301A). Described as above. Further details: expressed in transfected cells. To be noted: CHO-K1; SSTR4 mutant Y301^7.43A; mean ± SEM; read-out: Span.
Experimental: as §1, §2
and expressed in CHO K1 cells.
as §3, §4, §5, §6, §7, §8, §9
The subject of a further data set is SSTR1–5. To be noted: cited from earlier work. From the text: Somatostatin (SST), an inhibitory hormone that distributes widely in both human central nervous system and periphery tissues negatively regulates multiple hormone releases (growth hormone, glucagon, insulin, gastrin and cholecystokinin) and cell proliferation through SST receptors (SSTRs).[1]–[4] There are five types of SSTRs, namely SSTR1–SSTR5, which are divided into two subfamilies: SRIF1 (SSTR2, SSTR3, SSTR5) and SRIF2 (SSTR1, SSTR4) based on phylogenetic, sequence homology and ligand binding profiles.[5] Two bioactive SST peptides, SST-14 and its N-terminally extended form SST-28, have be ...

For data set [24] the following is noted: cited from earlier work. From the text:
Along with increased knowledge of the pharmacological effects of these receptors, medical application of SST and its analogs has expanded. A considerable amount of effort has been made to develop new therapeutics for oncology of SSTRs. […] It was found recently that radiolabeled SSTR antagonists produced superi ...

The mark [25] stands for this setting: at least three independent experiments.

Positions of bridges follow the written chain, without caps; N, C: chain ends. Residues, ends and D or L forms follow the SMILES beside them.

T7 sequence (P31391 whole entry N199A): as the sequence (P31391 whole entry N293F) above, with N199A, F293N counted along it
T8 sequence (P31391 whole entry): as the sequence (P31391 whole entry N293F) above, with F293N counted along it
T6 sequence (P31391 whole entry Q279A): as the sequence (P31391 whole entry N293F) above, with Q279A, F293N counted along it
T5 sequence (P31391 whole entry F275A): as the sequence (P31391 whole entry N293F) above, with F275A, F293N counted along it
T1 sequence (P31391 whole entry N293A): as the sequence (P31391 whole entry N293F) above, with F293A counted along it
Sequence of SSTR4 (Homo sapiens, UniProt P31391, S208A) (P31391 whole entry S208A): as the sequence (P31391 whole entry N293F) above, with S208A, F293N counted along it
T2 sequence (P31391 whole entry L297A): as the sequence (P31391 whole entry N293F) above, with F293N, L297A counted along it
Sequence of SSTR4 (Homo sapiens, UniProt P31391, Y301A) (P31391 whole entry Y301A): as the sequence (P31391 whole entry N293F) above, with F293N, Y301A counted along it

As for `C[C@@H]1NC(=O)[C@H](Cc2ccccc2)NC(=O)[C@@H](N)CSSC[C@@H](C(=O)O)NC(=O)[C@H](Cc2ccccc2)NC(=O)[C@H]([C@@H](C)O)NC(=O)[C@H](CCCCN)NC(=O)[C@H](Cc2c[nH]c3ccccc23)NC1=O` [Peptide3] (H-CFAWKTFC-OH; disulfide 1-8), the Emax amounted to 152 ± 11% at SSTR4 [1] (CHO-K1, read-out: Span); 132 ± 12% on SSTR4 [2] (CHO-K1, read-out: Span); 99 ± 8% at SSTR4 [3] (HEK293F, read-out: Span); 16 ± 7% on SSTR4 [4]; 58 ± 6% at SSTR4 [5] (HEK293F, read-out: Span); 48 ± 2% at SSTR4 [6] (HEK293F, read-out: Span). In addition, the Emax came to 100 ± 6% on SSTR4 [7] (HEK293F, read-out: Span); 106 ± 7% on SSTR4 [8] (HEK293F, read-out: Span); 65 ± 5% at SSTR4 [9] (HEK293F, read-out: Span); 20 ± 5% on SSTR4 [10] (HEK293F, read-out: Span); 77 ± 5% at SSTR4 [11] (HEK293F, read-out: Span); 93 ± 6% on SSTR4 [12] (HEK293F, read-out: Span). Moreover, the Emax was determined as 100 ± 3% at SSTR4 [13] (window between Emax and vehicle, read-out: Span); 72 ± 4% at SSTR4 [14] (HEK293F, read-out: Span); 79 ± 6% at SSTR4 [15] (HEK293F, read-out: Span); 23 ± 5% at SSTR4 [16]; 45 ± 12% at SSTR4 [17] (CHO-K1, read-out: Span); 26 ± 7% at SSTR4 [18]. For the same compound, the Emax was determined as 100 ± 7% on SSTR4 [19] (CHO-K1, read-out: Span); 26 ± 5% at SSTR4 [20]; 23 ± 8% at SSTR4 [21]; 96 ± 15% at SSTR4 [22] (CHO-K1, read-out: Span); 30 ± 16% on SSTR4 [23]. The IC50 on SSTR4 [1] was 0.0708 nM; at SSTR4 [2], 1.29 nM; at SSTR4 [17] it was 1.35 nM; at SSTR4 [19] (setting [25]) it was 3.8 nM; at SSTR4 [22], 0.0676 nM. Moreover, the half-maximal effective concentration (EC50) at SSTR4 [3] is 102 nM; at SSTR4 [5] it was 1.12 nM; at SSTR4 [6] it was 2.34 nM; at SSTR4 [7], 1.91 nM; at SSTR4 [8], 3.47 nM; at SSTR4 [9], 145 nM. For the same compound, the EC50 on SSTR4 [10] is 676 nM; at SSTR4 [11], 5.01 nM; at SSTR4 [12], 15.1 nM; at SSTR4 [13] (setting [25]) it was 1.26 nM; on SSTR4 [14], 97.7 nM; on SSTR4 [15], 0.479 nM.
As for “SST-28: N-terminally extended form of bioactive SST peptide”, the “affinity for SSTR1–5” value with SSTR1–5 was “high and equal affinity for SSTR1–5”.
Regarding “SST: Somatostatin, an inhibitory hormone”, the half-life result in data set [24] is reported as “less than 3 min”.
